“And” between values parts separate entries of the source, which are not always exact repeats. Identical values can stand only once. Toxic doses and inconclusive results are not listed.

Our source for the T/C values is PubChem BioAssay AID330 (DTP/NCI, 2004).

The assay deals with P388 leukemia ip, CD2F1 mice, survival T/C. Put plainly: NCI In Vivo Anticancer Drug Screen. Data for tumor model P388 Leukemia (intraperitoneal) in CD2F1 (CDF1) mice. Conditions: endpoint: median survival time, higher = longer survival. In a few lines: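 Mice carrying the transplanted tumor received test compound or vehicle. Survival was recorded in each group, and the value is the treated-group measurement divided by that of the vehicle-treated control group.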

[1] abbreviates: dose: 120.0 mg/kg/injection, schedule: Q01DX005 (ip), vehicle: Klucel (hydroxypropylcellulose) (HPC).
Where [2] appears, read: dose: 12.5 mg/kg/injection, schedule: Q01DX009 (ip), vehicle: saline with Tween-80.
Setting [3] is: dose: 25.0 mg/kg/injection, schedule: Q01DX009 (ip), vehicle: saline with Tween-80.
Setting [4] is: dose: 50.0 mg/kg/injection, schedule: Q01DX009 (ip), vehicle: saline with Tween-80.
Where [5] appears, read: dose: 200.0 mg/kg/injection, schedule: Q01DX009 (ip), vehicle: saline with Tween-80.
The mark [6] stands for this setting: dose: 3.12 mg/kg/injection, schedule: Q01DX005 (ip), vehicle: Klucel (hydroxypropylcellulose) (HPC).
The mark [7] stands for this setting: dose: 6.25 mg/kg/injection, schedule: Q01DX005 (ip), vehicle: Klucel (hydroxypropylcellulose) (HPC).
The mark [8] stands for this setting: dose: 50.0 mg/kg/injection, schedule: Q01DX009 (ip), vehicle: Klucel (hydroxypropylcellulose) (HPC).
The mark [9] stands for this setting: dose: 100.0 mg/kg/injection, schedule: Q01DX009 (ip), vehicle: Klucel (hydroxypropylcellulose) (HPC).
The mark [10] stands for this setting: dose: 100.0 mg/kg/injection, schedule: Q01DX009 (ip), vehicle: saline with Tween-80.

Take `CCOC(=O)Nc1cc(NC/C(=N\O)c2ccc3ccccc3c2)c([N+](=O)[O-])c(N)n1`: the T/C is 100 % of control (dose: 60.0 mg/kg/injection, schedule: Q01DX005 (ip), vehicle: Klucel (hydroxypropylcellulose) (HPC)); 100 % of control under setting [1]; 96 % of control (dose: 240.0 mg/kg/injection, schedule: Q01DX005 (ip), vehicle: Klucel (hydroxypropylcellulose) (HPC)).
Take `CCCCCCC(C)N=[N+]([O-])CBr` (stereo unspecified): the T/C reads like this: (dose: 100.0 mg/kg/injection, schedule: Q01DX001 (ip), vehicle: other) 114 % of control; (dose: 200.0 mg/kg/injection, schedule: Q01DX001 (ip), vehicle: other) 111 % of control; (dose: 400.0 mg/kg/injection, schedule: Q01DX001 (ip), vehicle: other) 103 % of control.
Turning to `O=C1CCC(=O)S1`, the T/C was 100 % of control (dose: 12.5 mg/kg/injection, schedule: Q04DX002 (ip), vehicle: saline with Tween-80); 91 % of control (dose: 25.0 mg/kg/injection, schedule: Q04DX002 (ip), vehicle: saline with Tween-80); 91 % of control (dose: 50.0 mg/kg/injection, schedule: Q04DX002 (ip), vehicle: saline with Tween-80).
For the compound `FC(F)(F)c1cc(NC(=S)SCc2ccc(Cl)cc2)ccc1Cl`, the T/C is, setting by setting: (dose: 50.0 mg/kg/injection, schedule: Q01DX009 (ip), vehicle: suspension in saline) 103 % of control; (dose: 100.0 mg/kg/injection, schedule: Q01DX009 (ip), vehicle: suspension in saline) 90 % of control; (dose: 200.0 mg/kg/injection, schedule: Q01DX009 (ip), vehicle: suspension in saline) 93 % of control.
On to `COc1ccc(NC(C)=NC(C)C)cc1`, for which the T/C under setting [2] was 101 % of control and 88 % of control; the T/C under setting [3] was 92 % of control; the T/C (dose: 50.0 mg/kg/injection, schedule: Q01DX009 (ip), vehicle: saline + Tween-80 + alcohol) was 98 % of control; the T/C under setting [4] was 100 % of control and 101 % of control.
Regarding `Oc1nc(-c2ccccc2)sc1-c1ccc(Cl)cc1`, the T/C reads like this: under setting [2], 93 % of control; under setting [3], 86 % of control; under setting [5], 98 % of control.
On to `CCOC(=O)C1=C(c2ccccc2)N(C)c2ccccc2S1`, for which the T/C is 100 % of control (dose: 60.0 mg/kg/injection, schedule: Q01DX005 (ip), vehicle: saline + Tween-80 + alcohol); 103 % of control (dose: 120.0 mg/kg/injection, schedule: Q01DX005 (ip), vehicle: saline + Tween-80 + alcohol); 100 % of control (dose: 240.0 mg/kg/injection, schedule: Q01DX005 (ip), vehicle: saline + Tween-80 + alcohol).
As for `COc1ccc(CN2COc3c(ccc4ccccc34)C2)cc1`, the T/C is, setting by setting: (dose: 100.0 mg/kg/injection, schedule: Q04DX003 (ip), vehicle: Klucel (hydroxypropylcellulose) (HPC)) 97 % of control; (dose: 200.0 mg/kg/injection, schedule: Q04DX003 (ip), vehicle: Klucel (hydroxypropylcellulose) (HPC)) 96 % of control; (dose: 400.0 mg/kg/injection, schedule: Q04DX003 (ip), vehicle: Klucel (hydroxypropylcellulose) (HPC)) 100 % of control.
As to `CCOC1NC(=O)Oc2ccccc21` (stereo unspecified), the T/C was 100 % of control under setting [6]; 96 % of control under setting [7]; 103 % of control and 105 % of control (dose: 12.5 mg/kg/injection, schedule: Q01DX005 (ip), vehicle: Klucel (hydroxypropylcellulose) (HPC)); 96 % of control (dose: 12.5 mg/kg/injection, schedule: Q01DX009 (ip), vehicle: Klucel (hydroxypropylcellulose) (HPC)); 100 % of control and 105 % of control (dose: 25.0 mg/kg/injection, schedule: Q01DX009 (ip), vehicle: Klucel (hydroxypropylcellulose) (HPC)); 100 % of control and 103 % of control (2×) under setting [8]. Also, the T/C (dose: 72.0 mg/kg/injection, schedule: Q01DX005 (ip), vehicle: Klucel (hydroxypropylcellulose) (HPC)) was 94 % of control; the T/C under setting [9] was 108 % of control and 109 % of control and 113 % of control; the T/C under setting [1] is 102 % of control; the T/C (dose: 400.0 mg/kg/injection, schedule: Q01DX009 (ip), vehicle: Klucel (hydroxypropylcellulose) (HPC)) is 200 % of control.
Regarding `N=C(N)c1ccc(N=Nc2c(O)c(C(=O)Nc3ccccc3)cc3ccccc23)cc1`, the T/C is, setting by setting: (dose: 50.0 mg/kg/injection, schedule: Q01DX005 (ip), vehicle: Klucel (hydroxypropylcellulose) (HPC)) 100 % of control; (dose: 100.0 mg/kg/injection, schedule: Q01DX005 (ip), vehicle: Klucel (hydroxypropylcellulose) (HPC)) 101 % of control; (dose: 200.0 mg/kg/injection, schedule: Q01DX005 (ip), vehicle: Klucel (hydroxypropylcellulose) (HPC)) 100 % of control.
As to `Cc1ccc(Oc2nc(=O)c3c(o2)CC(C)(C)C3)cc1`, the T/C is, setting by setting: under setting [2], 106 % of control; under setting [3], 106 % of control and 112 % of control; under setting [4], 103 % of control and 106 % of control and 114 % of control; under setting [10], 120 % of control and 96 % of control.
As for `O=C(Nc1ccc(N=C=S)cc1)c1cc(Br)cc(Br)c1O`, the T/C (dose: 50.0 mg/kg/injection, schedule: Q01DX001 (ip), vehicle: Klucel (hydroxypropylcellulose) (HPC)) was 101 % of control and the T/C (dose: 100.0 mg/kg/injection, schedule: Q01DX001 (ip), vehicle: Klucel (hydroxypropylcellulose) (HPC)) is 99 % of control.
Turning to `CC(C)CCC1(CCBr)C(=O)NC(=Nc2ccccc2)NC1=O` (stereo unspecified), the T/C runs as follows: under setting [3], 96 % of control; under setting [4], 98 % of control; under setting [10], 100 % of control; under setting [5], 100 % of control.
For the compound `CN1CCN=C1c1ccc(NC(=O)c2ccc(C(=O)Nc3ccc(C4=NCCN4C)cc3)c(Cl)c2)cc1`, the T/C (dose: 1.56 mg/kg/injection, schedule: Q01DX005 (ip), vehicle: Klucel (hydroxypropylcellulose) (HPC)) was 104 % of control; the T/C under setting [6] is 109 % of control; the T/C under setting [7] is 118 % of control and 123 % of control.
Turning to `Cc1ccc(S(=O)(=O)N/N=C2/CCCC(S(=O)(=O)c3ccc(C)cc3)C2)cc1` (stereo unspecified), the T/C is, setting by setting: (dose: 25.0 mg/kg/injection, schedule: Q01DX005 (ip), vehicle: saline with Tween-80) 111 % of control; (dose: 50.0 mg/kg/injection, schedule: Q01DX005 (ip), vehicle: saline with Tween-80) 98 % of control; (dose: 100.0 mg/kg/injection, schedule: Q01DX005 (ip), vehicle: saline with Tween-80) 93 % of control.
`NC(N)=N/N=C1C=C/C(=N/N=C(N)N)C/1`: the T/C is 104 % of control (dose: 25.0 mg/kg/injection, schedule: Q01DX001 (ip), vehicle: saline); 100 % of control (dose: 50.0 mg/kg/injection, schedule: Q01DX001 (ip), vehicle: saline); 107 % of control (dose: 100.0 mg/kg/injection, schedule: Q01DX001 (ip), vehicle: saline); 94 % of control (dose: 200.0 mg/kg/injection, schedule: Q01DX001 (ip), vehicle: saline).
Take `CCOC(=O)CC(=O)c1cccnc1`: the T/C is 113 % of control (dose: 50.0 mg/kg/injection, schedule: Q04DX003 (ip), vehicle: suspension in saline); 104 % of control (dose: 100.0 mg/kg/injection, schedule: Q04DX003 (ip), vehicle: suspension in saline); 114 % of control (dose: 200.0 mg/kg/injection, schedule: Q04DX003 (ip), vehicle: suspension in saline); 113 % of control (dose: 400.0 mg/kg/injection, schedule: Q04DX003 (ip), vehicle: suspension in saline).
`CC1(C)N=C(N)N=C(N)N1c1ccc(OCCCNC(=O)Nc2cccc(S(=O)(=O)F)c2)c(Cl)c1`: the T/C by setting is: (dose: 25.0 mg/kg/injection, schedule: Q01DX009 (ip), vehicle: saline) 179 % of control; (dose: 50.0 mg/kg/injection, schedule: Q01DX009 (ip), vehicle: saline) 190 % of control; (dose: 100.0 mg/kg/injection, schedule: Q01DX009 (ip), vehicle: saline) 209 % of control.
Consider `O=C1CCC2CCCCC2C1` (stereo unspecified), for which the T/C is 97 % of control under setting [8]; 104 % of control under setting [9]; 88 % of control (dose: 200.0 mg/kg/injection, schedule: Q01DX009 (ip), vehicle: Klucel (hydroxypropylcellulose) (HPC)).
For `Cc1cc(=O)c2ccc(Cl)c(C)c2[nH]1`, the T/C reads like this: (dose: 60.0 mg/kg/injection, schedule: Q01DX005 (ip), vehicle: saline with Tween-80) 110 % of control; (dose: 120.0 mg/kg/injection, schedule: Q01DX005 (ip), vehicle: saline with Tween-80) 93 % of control; (dose: 240.0 mg/kg/injection, schedule: Q01DX005 (ip), vehicle: saline with Tween-80) 103 % of control.
